Data on 20 compounds can be found in patent publication US20250268903A1, “RXFP1 AGONISTS” (BRISTOL-MYERS SQUIBB COMPANY, priority 2021, published 2025).

The target in the first data set is T1, human RXFP1 (Homo sapiens, UniProt Q9HBX9).
T1 construct: expressed in transfected cells
T1 sequence (Q9HBX9 1-757): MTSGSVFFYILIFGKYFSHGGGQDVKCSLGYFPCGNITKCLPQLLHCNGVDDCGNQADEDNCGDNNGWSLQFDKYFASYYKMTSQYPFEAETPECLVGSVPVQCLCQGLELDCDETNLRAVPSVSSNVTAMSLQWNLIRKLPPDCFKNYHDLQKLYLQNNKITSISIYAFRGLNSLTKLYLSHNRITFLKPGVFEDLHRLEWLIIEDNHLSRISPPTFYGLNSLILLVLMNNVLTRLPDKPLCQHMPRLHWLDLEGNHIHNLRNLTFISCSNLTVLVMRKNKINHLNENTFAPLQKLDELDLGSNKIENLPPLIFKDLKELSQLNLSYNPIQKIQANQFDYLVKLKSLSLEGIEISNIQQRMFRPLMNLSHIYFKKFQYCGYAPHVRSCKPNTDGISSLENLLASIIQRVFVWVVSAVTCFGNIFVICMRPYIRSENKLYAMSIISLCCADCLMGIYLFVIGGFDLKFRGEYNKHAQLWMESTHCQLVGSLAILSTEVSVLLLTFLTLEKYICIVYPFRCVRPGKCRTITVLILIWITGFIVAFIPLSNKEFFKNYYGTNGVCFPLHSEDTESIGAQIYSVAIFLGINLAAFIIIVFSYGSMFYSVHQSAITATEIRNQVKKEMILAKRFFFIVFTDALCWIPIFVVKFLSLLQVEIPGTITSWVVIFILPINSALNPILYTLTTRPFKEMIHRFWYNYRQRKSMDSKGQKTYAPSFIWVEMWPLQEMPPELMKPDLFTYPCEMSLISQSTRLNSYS
Description: hRXFP1 HEK293 cAMP assay (HTRF). It is filed as cell-based. Particulars: HEK293 cells stably expressing human RXFP1, 30 min at room temperature. Put shortly:
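hRXFP1-HEK293 stable line; HBSS + Ca/Mg, 20 mM HEPES, 0.05% BSA, 0.5 mM IBMX; cpd 0.010 nM–50 μM, 2% DMSO; 30 min RT; lysis, HTRF cAMP detection; 4-PL fit.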
Background: Changes in cAMP serve as a functional read-out for many G protein-coupled receptors.
On to `COc1ccc([C@H]2C[C@H](O)C2)cc1C(=O)NC1C2CCC(/C2=C/C2CC2)[C@@H]1C(=O)Nc1ccc(F)c(C(F)(F)F)c1` (stereo partly drawn) [Example 148, (2S,3R,7Z)-7-(cyclopropylmethyli-dene)-N-[4-fluoro-3-(trifluoromethyl)phe-nyl]-3-{2-methoxy-5-[(1r,3r)-3-hydroxycyclobutyl]benzamido}bicyclo [2.2.1]heptane-2-carboxamide], for which the EC50 was found to be 6 nM. The compound `COc1ccc(CC(=O)N2CCC(C)(O)C2)cc1C(=O)NC1C(C(=O)Nc2ccc(F)c(C(F)(F)F)c2)[C@H]2CC[C@@H]1/C2=C\C1CC1` (stereo partly drawn) [Example 357, (1R,4R,7Z)-7-(cyclopropyl-methylidene)-N-[4-fluoro-3-(trifluoromethyl)phenyl]-3-{5-[2-(3-hydroxy-3-methylpyrrolidin-1-yl)-2-oxoethyl]-2-methoxybenzamido} bicyclo[2.2.1]heptane-2-carboxamide] came in with an EC50 of 1290 nM. As to `COc1ccc(CCCO)cc1C(=O)NC1C2CCC(/C2=C/C2CCCOC2)[C@@H]1C(=O)Nc1ccc(F)c(C(F)(F)F)c1` (single isomer, unassigned) [Example 171, (7Z)-N-[4-fluoro-3-(trifluoromethyl)phe-nyl]-3-[5-(3-hydroxypropyl)-2-methoxybenzamido]-7-[(oxan-3-yl)methylidene]bicy-clo[2.2.1]heptane-2-carboxamide], it took 397 nM to reach a half-maximal effect (EC50). Compound `COc1ccc(CN2C(=O)CN(CCO)C2=O)cc1C(=O)N[C@H]1[C@@H](C(=O)Nc2ccc(F)c(C(F)(F)F)c2)[C@H]2CC[C@@H]1/C2=C\C1CC1` [Example 294, (1R,2S,3R,4R,7Z)-7-(cyclopropyl-methylidene)-N-[4-fluoro-3-(trifluoromethyl)phenyl]-3-(5-{[3-(2-hydroxyethyl)-2,5-dioxoimidazolidin-1-yl]methyl}-2-methoxybenzamido) bicyclo[2.2.1]heptane-2-carboxamide] showed an EC50 of 117 nM. The compound `COc1ccc(C23CCC(C(C)(C)O)(CC2)CC3)cc1C(=O)N[C@H]1[C@@H](C(=O)Nc2ccc(F)c(C(F)(F)F)c2)[C@H]2CC[C@@H]1/C2=C\C1CC1` [Example 275, (1R,2S,3R,4R,7Z)-7-(cyclopropylmethyl-idene)-N-[4-fluoro-3-(trifluoromethyl)phenyl]-3-{5-[4-(2-hydroxypropan-2-yl)bicyclo[2.2.2]octan-1-yl]-2-methoxybenzamido} bicyclo[2.2.1]heptane-2-carboxamide] displayed an EC50 of 41.8 nM. `COc1ccc(COCC2CC(F)(F)C2)cc1C(=O)N[C@H]1[C@@H](C(=O)Nc2ccc(F)c(C(F)(F)F)c2)[C@H]2CC[C@@H]1/C2=C\C1CC1` [Example 283, (1R,2S,3R,4R,7Z)-7-(cyclopropyl-methylidene)-3-(5-{[(3,3-difluorocyclobutyl)methoxy]methyl}-2-methoxybenzamido)-N-[4-fluoro-3-(trifluoromethyl)phenyl] bicyclo[2.2.1] heptane-2-carboxamide] yielded an EC50 of 110 nM. Compound `COc1ccc(C2CCCC(OC(=O)Nc3ccccc3)C2)cc1C(=O)N[C@@H]1C2CCC(/C2=C/C(F)(F)F)[C@@H]1C(=O)Nc1ccc(F)c(C(F)(F)F)c1` (single isomer, unassigned) [Example 42] showed an EC50 of 214 nM. As to `COc1ccc(CCc2ccc(OC)c(C(=O)NC3C4CCC(/C4=C/C(F)(F)F)[C@@H]3C(=O)Nc3ccc(F)c(C(F)(F)F)c3)c2)cc1` (some centres unmarked) [Example 188, (7Z)-N-[4-fluoro-3-(trifluoromethyl)phe-nyl]-3-{2-methoxy-5-[2-(4-methoxyphenyl)ethyl]benzamido}-7-(2,2,2-trifluoroethylidene)bi-cyclo[2.2.1]heptane-2-carboxamide], the EC50 worked out at 56 nM.

Regarding “(1R,4R,7Z)-7- (cyclopentyl- methylidene)- N-[4-fluoro- 3-(trifluoromethyl) phenyl]-3-[5-(3- hydroxy-3- methylbutyl)-2- methoxybenzamido] bicyclo[2.2.1]heptane- 2-carboxamide [Example 260]”, the response was half-maximal at 324 nM (EC50). On the same count and under the same terms, under `COc1ccc(CCC(F)(F)F)cc1C(=O)NC1C2CCC(/C2=C/C(F)(F)F)[C@@H]1C(=O)Nc1ccc(F)c(C(F)(F)F)c1` (some centres unmarked) [Example 187, (7Z)-N-[4-fluoro-3-(trifluoromethyl)phe-nyl]-3-[2-methoxy-5-(3,3,3-trifluoropropyl)benz-amido]-7-(2,2,2-trifluoroethylidene)bi-cyclo[2.2.1]heptane-2-carboxamide] stands 385 nM; under `COc1ccc(S(=O)(=O)N2CC3CCC(C2)O3)cc1C(=O)N[C@H]1[C@@H](C(=O)Nc2ccc(F)c(C(F)(F)F)c2)[C@H]2CC[C@@H]1/C2=C\C1CC1` [Example 221, (1R,2S,3R,4R,7Z)-7-(cyclopropylmethyl-idene)-N-[4-fluoro-3-(trifluoromethyl)phenyl]-3-(2-methoxy-5-{8-oxa-3-azabicyclo[3.2.1]octane-3-sulfonyl}benzamido) bicyclo[2.2.1]heptane-2-carboxamide], 44.9 nM. The same measure, in the same setting: under “(1R,4R,7Z)-N-[4- fluoro-3- (trifluoromethyl) phenyl]-3-[5-(3- hydroxy-3- methylbutyl)-2- methoxybenzamido 1-7-[(oxolan-3- yl)methylidene] bicyclo[2.2.1] heptane- 2-carboxamide [Example 267]” stands 246 nM; under `COc1ccc(C(=O)N2CCC(S(C)(=O)=O)C2)cc1C(=O)N[C@H]1[C@@H](C(=O)Nc2ccc(F)c(C(F)(F)F)c2)[C@H]2CC[C@@H]1/C2=C\C1CC1` (stereo partly drawn) [Example 252, (1R,2S,3R,4R,7Z)-7-(cyclopropyl-methylidene)-N-[4-fluoro-(trifluoromethyl)phenyl]-3-[5-(3-methanesulfonyl-pyrrolidine-1-carbonyl)-2-methoxybenzamido] bicyclo[2.2.1] heptane-2-carboxamide], 4.16 nM; under `COc1ccc(COC2CCC(O)CC2)cc1C(=O)N[C@H]1[C@@H](C(=O)Nc2ccc(F)c(C(F)(F)F)c2)[C@H]2CC[C@@H]1/C2=C\C1CC1` (stereo partly drawn) [Example 290, (1R,2S,3R,4R,7Z)-7-(cyclopropyl-methylidene)-N-[4-fluoro-3-(trifluoromethyl)phenyl]-3-(5-{[(4-hydroxycyclohexyl)oxy]methyl}-2-methoxybenzamido) bicyclo[2.2.1]heptane-2-carboxamide], 76.6 nM. Regarding `COc1ccc(C2CCCC(N3CC(F)(F)C3)C2)cc1C(=O)N[C@H]1[C@@H](C(=O)Nc2ccc(F)c(C(F)(F)F)c2)[C@H]2CC[C@@H]1/C2=C\C(F)(F)F` (stereo partly drawn) [Example 355, (1R,2S,3R,4R,7Z)-3-[5-13-(3,3-difluoroazetidin-1-yl)cyclohexyl]-2-methoxybenzamido 3-N-[4-fluoro-3-(trifluoromethyl)phenyl]-7-(2,2,2-trifluoroethylidene) bicyclo[2.2.1] heptane-2-carboxamide], the EC50 turned out to be 4960 nM. Compound `COC(=O)C1CC(c2ccc(OC)c(C(=O)N[C@H]3[C@@H](C(=O)Nc4ccc(F)c(C(F)(F)F)c4)[C@H]4CC[C@@H]3/C4=C\C3CC3)c2)C1` (single isomer, unassigned) [Example 332] had an EC50 of 112 nM. Consider `COc1ccc(C2CCC2)cc1C(=O)N[C@H]1[C@@H](C(=O)Nc2ccc(F)c(C(F)(F)F)c2)[C@H]2CC[C@@H]1/C2=C\C(F)(F)F` [Example 176, (1R,2S,3R,4R,Z)-3-(5-cyclobutyl-2-methoxybenzamido)-N-(4-fluoro-3-(trifluoromethyl)phenyl)-7-(2,2,2-trifluoroethylidene) bicyclo[2.2.1]heptane-2-carboxamide], for which a half-maximal response (EC50) required 738 nM. The compound `COc1cc(F)c(O[C@H]2CC[C@H](C(=O)O)CC2)cc1C(=O)N[C@@H]1C2CCC(/C2=C/C2CC2)[C@@H]1C(=O)Nc1ccc(F)c(C(F)(F)F)c1` (stereo partly drawn) [Example 376, (1R,4r)-4-(5-(((1R,2R,3S,4R,Z)-7-(cyclopropyl-methylene)-3-((4-fluoro-3-(trifluoromethyl)phenyl)carbamoyl)bicyclo[2.2.1]heptan-2-yl)carbamoyl)-2-fluoro-4-methoxyphenoxy) cyclohexane-1-carboxylic acid] returned a 50% effective concentration (EC50) of 120 nM. `COc1ccc(C#CCCO)cc1C(=O)N[C@@H]1C2CCC(/C2=C/C(F)(F)F)[C@@H]1C(=O)Nc1ccc(F)c(C(F)(F)F)c1` (stereo partly drawn) [Example 76, (2S,3R,7Z)-N-[4-fluoro-3-(trifluoromethyl)phe-nyl]-3-[5-(4-hydroxybut-1-yn-1-yl)-2-methoxybenzamido]-7-(2,2,2-trifluoroethylidene)bi-cyclo[2.2.1]heptane-2-carboxamide] showed an EC50 of 66 nM.

Tested on in another data set: not given
Experiment: not given
The note with it: intravenous (IV) formulation; cited from earlier work.
As for “Serelaxin: "an intravenous (IV) formulation of the recombinant human relaxin peptide with a relatively short first-phase pharmacokinetic half-life of 0.09 hours"”, the first-phase pharmacokinetic half-life is 5.4 min.

A word on the EC50: it is the concentration at which the effect is half-maximal. A high value points to lower potency in that assay.
